Measured values from paper PMC5958115, “A novel small molecule chaperone of rod opsin and its potential therapy for retinal degeneration” (Nature Communications, 2018).

What was measured:
P23H opsin = conditions: cited from earlier work
human rod opsin D190N = molecular target: T1, human rod opsin D190N (Homo sapiens, UniProt P08100, D190N); experiment: Cell-surface immunostain of rod opsin mutant in transfected NIH3T3 cells; assay type: cell-based; conditions: 10 µM, 24 h
T1 construct: expressed in transfected cells; host or cells: NIH3T3 cells, transient transfection with pcDNA3.1-hOpsin mutant
Procedure: (§1) Human rhodopsin cDNA was placed into the pcDNA3.1(+) vector (pcDNA3.1-hOpsin). Site-directed mutagenesis was performed following the QuickChange II site-directed mutagenesis kit (Agilent Technologies Inc.). Primers for the following mutations were as follows: T4R-forward, 5′-[…]-3′; T4R-reverse, 5′-[…]-3′; P53R-forward, 5′-[…]-3′; P53R-reverse, 5′-[…]-3′; G106R-forward, 5′-[…]-3′; G106R-reverse, 5′-[…]-3′; C110Y-forward, 5′-[…]-3′; C110Y-reverse, 5′-[…]-3′; D190N-forward, 5′-[…]-3′; D190N-reverse, 5′-[…]-3′; P267L-forward, 5′-[…]-3′; P267L-reverse, 5′-[…]-3′. DNA vectors with rhodopsin mutations were confirmed by Sanger sequencing. After NIH3T3 cells were transfected with pcDNA3.1-hOpsin or its mutants for 24 h, these cells were resuspended and seeded into a 96-well plate with an optic bottom (Corning). […] Each condition was repeated in three wells. The treated plate was covered in tin foil and incubated at 37 °C with 5% CO2 for 24 h. Cells were then immunostained with 50 µg mL^−1 Alexa488-conjugated B6-30 anti-rhodopsin antibody. Cells were not exposed to detergents so that cell membranes were kept intact and only rhodopsin on the cell surface was immunostained. Alexa 488 fluorescence was imaged by the ImageExpress (Molecular Devices) high-content imager with a ×20 objective.

human rod opsin P53R = molecular target: T2, human rod opsin P53R (Homo sapiens, UniProt P08100, P53R); experiment: as above; assay type: cell-based; conditions: 10 µM, 24 h
T2 construct: expressed in transfected cells; host or cells: NIH3T3 cells, transient transfection with pcDNA3.1-hOpsin mutant
Procedure: as §1

human rod opsin C110Y = molecular target: T3, human rod opsin C110Y (Homo sapiens, UniProt P08100, C110Y); experiment: as above; assay type: cell-based; conditions: 10 µM, 24 h
T3 construct: expressed in transfected cells; host or cells: NIH3T3 cells, transient transfection with pcDNA3.1-hOpsin mutant
Procedure: as §1

human rod opsin G106R = molecular target: T4, human rod opsin G106R (Homo sapiens, UniProt P08100, G106R); experiment: as above; assay type: cell-based; conditions: 10 µM, 24 h
T4 construct: expressed in transfected cells; host or cells: NIH3T3 cells, transient transfection with pcDNA3.1-hOpsin mutant
Procedure: as §1

human rod opsin P267L = molecular target: T5, human rod opsin P267L (Homo sapiens, UniProt P08100, P267L); experiment: as above; assay type: cell-based; conditions: 10 µM, 24 h
T5 construct: expressed in transfected cells; host or cells: NIH3T3 cells, transient transfection with pcDNA3.1-hOpsin mutant
Procedure: as §1

C57BL/6 mice = experiment: Retinoid cycle analysis: 11-cis-retinyl-oxime recovery after bleaching; assay type: in vivo, mouse; conditions: 200 mg kg^−1 bw i.p. 30 min before 10,000 lux 10 min; vs DMSO
Procedure: To test if treatment with YC-001 affects visual pigment regeneration, we quantified the 11-cis-retinyl-oxime extracted from retinas of C57BL/6 mice after different periods of dark adaptation following exposure to bright light. Mice at 6 weeks of age were administered YC-001 at 200 mg kg^−1 bw via i.p. injection. At 30 min following YC-001 administration, eyes were dilated with 1% tropicamide. Mice then were anesthetized with a cocktail containing 20 mg mL^−1 of ketamine and 1.75 mg mL^−1 of xylazine at a dose of 4 μL g^−1 bw. Anesthetized mice were exposed to bright light with an intensity of 10,000 lux for 10 min to bleach about 90% of the rhodopsin pigment. Mice then were returned to the dark for recovery. Animals then were euthanized at 0, 2, 4, 6 or 24 h after bleaching and recovery in the dark, and their eyes were removed and homogenized in 1 mL of 1:1 PBS:ethanol mixture (v/v) containing 40 mM hydroxylamine. […] 11-cis-Retinyl-oxime released from the regenerated rhodopsin pigments were separated on an Agilent Sil column (5 µm, 4.6 × 250 mm) with an isocratic flow of 10% ethyl acetate in hexanes (1.5 mL min^−1) and detected at 325 nm. Amounts of 11-cis-retinyl-oximes per eye were quantified by normalizing the peak area to an 11-cis-retinyl-oxime standard. 11-cis-Retinyl-oximes were quantified in three eye samples per condition, and the means and s.d.s were calculated.

[1] = Pharmacokinetics of YC-001 in mouse plasma; assay type: in vivo, C57BL/6 mice
Procedure: C57BL/6J mice ranging from 8 to 12 weeks of age were purchased from Jackson Labs. For administration, YC-001 was dissolved in DMSO at 160 mg mL^−1. To obtain the blood clearance curve for YC-001, each animal was treated by i.p. injection of YC-001 at 200 mg kg^−1 bw. After administration, blood was collected at 5, 10, 15, 20, 30, 45, 60, and 90 min from the orbital sinus and dropped into K2EDTA blood collection tubes (FisherScientific). Mice were anesthetized with a ketamine/xylazine cocktail two min before blood collection. The blood samples were then incubated at 4 °C for 2 h before centrifugation at 1800×g for 20 min to collect the plasma in the supernatant. Plasma was mixed with twice the volume of methanol and then stored at −80 °C. YC-001 was extracted from the samples (300 to 600 μL) with 0.6 mL chloroform. The chloroform fraction was collected, dried, and the extracted organic compounds were dissolved in 0.25 mL of methanol. One hundred µL of each sample was injected onto an Eclipse XDB-C18 column (4.6 × 150 mm, 5 µm) and YC-001 was detected and quantified as described in the section Metabolic stability of YC-001.

SMILES: O=C1OCC(c2ccc(Cl)s2)=C1c1cccs1 [YC-001]
- effect of co-treatment with scriptaid (P23H opsin): synergistic effect
- cell-surface staining of D190N rod opsin (human rod opsin D190N): increased significantly
- cell-surface staining of P53R rod opsin (human rod opsin P53R): not P53R or C110Y mutants increased significantly
- cell-surface staining of C110Y rod opsin (human rod opsin C110Y): not P53R or C110Y mutants increased significantly
- cell-surface staining of G106R rod opsin (human rod opsin G106R): increased significantly
- cell-surface staining of P267L rod opsin (human rod opsin P267L): increased significantly
- recovery of 11-cis-retinyl-oxime after bleaching (C57BL/6 mice): little difference
- k el ([1]; C57BL/6J, mouse, plasma, intraperitoneal, 200 mg kg^−1 bw, estimated from T1/2 and C0, read-out: elimination rate constant (Ke) (converted)): 0.000335 s⁻¹
- C0 ([1]; C57BL/6J, mouse, plasma, ip, i.p. 200 mg kg^−1 bw, read-out: initial plasma concentration (C0)): 7280 ng/mL
- half-life ([1]; C57BL/6J, mouse, plasma, ip, i.p. 200 mg kg^−1 bw, read-out: plasma half-life (T1/2)): 34.5 min
- clearance ([1]; estimated from T1/2 and C0): 0.552 L min^−1 kg^−1 bw
- volume of distribution (Vd) ([1]; estimated from T1/2 and C0): 27.5 L kg^−1 bw
